Four molecules from US20120315254A1, “METHODS AND COMPOSITIONS FOR ENHANCING FAT GRAFT SURVIVAL” (Sebana Medical Ltd., priority 2010, published 2012) can be followed below.

The subject of assay [1] is human umbilical vein endothelial cells (HUVECs). Description: HUVEC proliferation ([3H]-thymidine incorporation). Particulars: inhibitor exposure for 3 hours, without EPO. The assay is classed as cell-based. Here is the method: To investigate EPO-induced angiogenesis through mechanisms involving pro-angiogenic factors, the present inventor measured the proliferation of EPO-treated HUVECs in the presence of various pro-angiogenic factor inhibitors. To this end, HUVECs (2×10^5 cells/well) were cultured on fibronectin-coated 12-well plates in EBM-2. The cultured HUVECs were treated with or without 100 IU/ml EPO for 48 hours, and then exposed for 3 hours to (a) 0.25 mg/ml bevacizumab, (b) 100 nM of PD173074; an inhibitor of bFGF (Calbiochem, San Diego, Calif.), (c) 20 μM of tyrphostin AG 1296; a selective inhibitor of PDGF (Sigma), (d) a combination of bevacizumab, PD173074 and tyrphostin, and to (e) 100 nM wortmannin; a phosphatidylinositol 3-kinaz (PI 3-K) inhibitor (Sigma). Upon the completion of the experiment, the cells were washed with PBS and then incubated with 1 μCi/ml medium [^3H]-thymidine (NEN, Boston, Mass., USA) for 5 h at 37° C. Thereafter, 0.5 ml cold 10% Trichloroacetic acid (TCA) was added into each well for another 30 min at 4° C. To extract the ^3H-thymidine labeled DNA, 0.5 ml 1N NaOH was added to each well for 10 min at room temperature, and then 0.5 ml 1N HCl was added and mixed well. Samples of mixture solution (0.5 ml) was taken from each well and added to scintillation vials for the measurement of [^3H]-thymidine incorporation to DNA (cpm/mg protein). Duplicate cell counts were averaged for 3 experiments. Data were expressed as the percentage of control.
For orientation: Uptake of a labelled nucleoside into DNA is a usual measure of proliferation.

Assay [2] has the same test system. Description: In vitro tube formation of HUVECs on matrigel. The class given is cell-based. The procedure: The in vitro angiogenic potential of VEGF and EPO was measured by assessment of their ability to form tubes of endothelial cells on matrigel. To this end, human umbilical vein endothelial cells (HUVECs, LONZA, USA) were first cultured on fibronectin-coated 6-well plates in endothelial basal medium-2 (EBM-2, PromoCell, USA) until confluence and then the cells were treated with 0, 20 or 100 IU/ml EPO for 48 hours before their use in the assay (FIG. 7A). In a second experiment (FIG. 7B), HUVECs were exposed to 0, 100 IU/ml EPO or 200 ng/ml VEGF for 48 hours in EBM-2 with or without 0.25 mg/ml bevacizumab (Avastin®, Genentech, San Francisco, Calif., USA), a humanized monoclonal antibody that antagonizes the actions of VEGF. After 48 hours, the untreated HUVECs, the VEGF- and EPO-treated HUVECs, and the VEGF+bevacizumab- and EPO+bevacizumab-treated HUVECs were detached gently by 0.5% trypsin/EDTA, and then suspended in EBM-2. At the same time, frozen matrigel (Sigma Aldrich, St Louis Mo., USA) was thawed, and spread onto 96-well plates ([…]) at room temperature for 30 minutes to allow solidification. […] After 24 hours, the non-integrated cells were removed by washing and tube formation on the matrigel was assessed under a light microscope at 10× magnification. […]

A further assay deals with VEGF. Kind of assay: Plasma VEGF concentration and fat graft VEGF content (ELISA). The assay is classed as in vivo, CD-1 nude mice. To be noted: VEGF-treated (200 ng/100 μl PBS) vs PBS-treated fat grafts; week 15. Here is the method: (§1) The first study comprised 30 seven-week-old female CD-1 nude mice (Harlan, Jerusalem, Israel). These mice were housed in cages in a room with an artificial 12-h light/dark cycle at a constant temperature range (24±2° C.) and relative humidity (55±10%). The mice were acclimated for one week prior to the study, and fed a standard laboratory chow and water ad libitum. The 30 mice were randomly divided into three equal groups and treated as follows: Group 1 mice were injected with 1 ml of human fat and were treated with sterile PBS (control group). Group 2 mice were injected with 1 ml human fat and were treated with 1000 IU/kg EPO (low-dose EPO group). […]
The duration of the study period of both experiments was 15 weeks from the start of fat transplantation. […] VEGF and EPO concentrations were determined in homogenates of samples of the fat grafts using commercial enzyme-linked immunosorbent assays (Quantikine® VEGF immunoassay Kit and Quantikine® WD® Erythropoietin Kit, R&D Systems, MN, USA) in accordance with the manufacturer's instructions.
(§2) After 15 weeks, all mice were humanely killed and the fat grafts were carefully dissected from their scalps (FIG. 1C). Each fat graft was weighed and the volume of the fat graft was measured by the liquid overflow method as previously described [Ayhan et al. (2001) Aesthetic Plast Surg 25:338-342]. […]

For assay [3], the system named is human fat grafts. Description: Fat graft weight and volume 15 weeks after transplantation. The assay is classed as in vivo, CD-1 nude mice. To be noted: VEGF 200 ng/100 μl PBS every three days for 18 days; week 15; second experiment.
From the text: Fat was harvested from the thigh of a person by suction-assisted lipectomy under […] anesthesia. The fat was aspirated under local anesthesia using a 14-gauge blunt cannula, and then processed under sterile conditions for subsequent grafting into nude mice within two hours of its collection according to previously published protocols [Ullmann et al. (2005) Dermatol Surg 31:1304-7; Kurita et al. (2008) Plast Reconstr Surg 121:1033-1041].
as §1, §2

Assay [4] has as its system human fat grafts. Description: Histological analysis of the dissected fat grafts (grades 0 to 5). The class given is in vivo, CD-1 nude mice. Particulars: grade on a scale of 0 to 5; VEGF 200 ng/100 μl PBS; week 15. The procedure: The first study comprised 30 seven-week-old female CD-1 nude mice (Harlan, Jerusalem, Israel). These mice were housed in cages in a room with an artificial 12-h light/dark cycle at a constant temperature range (24±2° C.) and relative humidity (55±10%). The mice were acclimated for one week prior to the study, and fed a standard laboratory chow and water ad libitum. The 30 mice were randomly divided into three equal groups and treated as follows: Group 1 mice were injected with 1 ml of human fat and were treated with sterile PBS (control group). Group 2 mice were injected with 1 ml human fat and were treated with 1000 IU/kg EPO (low-dose EPO group). Group 3 mice were injected with 1 ml human fat and were treated with 5000 IU/kg EPO (high-dose EPO group). The fat was injected subcutaneously into the scalp using a 14G needle while the animals were manually restrained. Immediately following fat transplantation, the PBS-treated fat grafts were injected with 100 μl PBS (control group), and the EPO-treated fat grafts were injected with either 20 IU EPO/100 μl PBS (low-dose EPO group) or 100 IU EPO/100 μl PBS (high-dose EPO group) every three days for 18 days (a total of 6 injections). EPO was purchased as an injection ampoule (ARANESP®, Amgen AG, Zug, Switzerland) which contained 150 μg/ml (18,000 IU) of EPO.
The second animal study comprised 20 seven-week-old female CD-1 nude mice, and differed from the first study in that the fat was treated with VEGF (2 μg/ml, Sigma Aldrich, Mo., USA) following implantation. 10 mice were injected with fat followed by 200 ng VEGF/100 μl PBS injections every three days for a total of 18 days. The remaining 10 mice made up a second control group that was treated in an identical manner to the control group in the first study. Post-operative analgesics and antibiotics were not administered to the mice in the two experiments.
(§3) Histological slides of the formalin-maintained samples were prepared and then stained with hematoxylin and eosin using standard procedures. Immunohistochemistry was performed using rabbit monoclonal antibodies against tissue CD31, VEGFR-2 and EPOR, and goat polyclonal IgG against VEGF (R&D Systems, Minneapolis Minn., USA), and CD68 (Dako, Glostrup, Denmark). The paraffin-embedded fat graft sections were incubated with the antibodies overnight at room temperature followed by incubation with appropriate secondary antibodies [Li et al. (2005) J Cell Biochem 95: 559-570]. Upon completion of the incubations, the specimens were counterstained with hematoxylin. Mouse IgG was used as a negative control. […]

In assay [5] the test system is CD31-positive endothelial cells. Kind of assay: Microvascular density (MVD, CD31) in fat grafts. The class given is in vivo, CD-1 nude mice. The procedure:
Quantification of macrophage infiltration in the fat grafts was estimated by counting the number of CD68-positive cells in five fields per fat graft in all fat graft sections. Microvascular density (MVD) in fat grafts was determined in five regions of interest where the CD31 antibody signal was the most intense in each section in all of the fat graft sections. The number of macrophages and blood vessels in each region was counted under a light microscope at 400× magnification. The assessment in each fat graft was made by calculating the mean result in two different sections per fat graft and five different fields of view per section.
The paraffin-embedded fat graft sections were incubated overnight at room temperature with a monoclonal antibody against tissue CD31 (R&D Systems, Minneapolis Minn., USA) as previously described [Li et al. (2005) J Cell Biochem 95:559-570]. Upon completion of the incubation, the specimens were counterstained with hematoxylin. Mouse IgG was used as a negative control. The microvascular density (MVD) was determined in five regions of interest where the CD31 antibody signal was most intense. The number of blood vessels in each region was counted under a light microscope at […] magnification.

Assay [6] has as its system bFGF, IGF-1, PDGF-BB, VEGFR-2, EPOR, MMP-2, PKB, phosphoPKB, caspase 3, cytochrome c. Kind of assay: Expression of angiogenic, survival and pro-apoptotic factors in fat grafts (Western blotting, immunohistochemistry). The class given is in vivo, CD-1 nude mice. To be noted: VEGF-treated vs PBS-treated fat grafts, Western blot; week 15. Here is the method: as §3
The expression levels of the angiogenic factors, bFGF, IGF-1, PDGF-BB VEGFR-2, EPOR and MMP-2, the cell survival factor PKB and phosphorylated PKB, and the pro-apoptotic factors caspase 3 and cytochrome c were determined in homogenates of the harvested fats grafts by Western blotting. […] The resultant bands were quantified by densitometry.
On the technique in general: In western blotting, separated proteins are transferred to a membrane and probed.

Assay [7] concerns human fat grafts. Kind of assay: Extent of apoptosis in fat grafts (TUNEL assay). The assay is classed as in vivo, CD-1 nude mice. To be noted: VEGF-treated (200 ng/100 μl PBS) vs PBS-treated fat grafts; week 15. Here is the method:
The extent of apoptosis in all fat grafts was assessed by the terminal deoxyuridine triphosphate nick end labeling (TUNEL) assay using a commercial kit (ApopTag® Plus Fluorescein Kit, CHEMICON, CA, USA), in accordance with the manufacturer's instructions. Duplicates were carried out for each sample and were processed by fluorescence-activated cell sorting (FACS, Becton Dickinson, N.J., USA). Data was analyzed using the Macintosh CELLQuest software program (Becton Dickinson).

In the case of tyrphostin AG 1296, in assay [1], the HUVEC proliferation result is given as “reduced HUVEC proliferation significantly”.
With bevacizumab [reference compound], the HUVEC tube formation result in assay [2] (0.25 mg/ml bevacizumab in VEGF-treated HUVECs) is given as “substantially reduced”. Moreover, the HUVEC proliferation entry in assay [1] is reported as “reduced HUVEC proliferation significantly”.
Regarding “vascular endothelial growth factor [VEGF]”, in the assay on VEGF, the “VEGF content in fat grafts” value is “higher than, but not statistically different from”. Also, in the assay on human fat grafts [3], the “fat graft Volume” value was found to be 0.36 ± 0.2 mL and the “fat graft Weight” value came out at 0.35 ± 0.2 g. Further, in the assay on human fat grafts [4], the Cyst/Vacuoles turned out to be 3.3 ± 1.0, the Fibrosis was 2.9 ± 0.7, the Inflammation is 4.0 ± 1.2 and the Integration is listed as 3.2 ± 0.9. The “microvascular density (MVD)” value in assay [5] (VEGF-treated (200 ng/100 μl PBS) vs PBS-treated fat grafts, week 15) was “higher than, but not statistically different from”. Further, the “vessel morphology in fat grafts” value in assay [5] (VEGF-treated fat grafts (data not shown)) was “unorganized vessel formation and perivascular hemorrhage”. Further, in assay [6], the “expression levels of caspase 3 and cytochrome c” value is reported as “no statistical differences”. In the assay with human fat grafts [7], the “extent of apoptosis (TUNEL)” value is given as “greater than that in the PBS-treated fat grafts”. Moreover, in assay [2] (200 ng/ml VEGF, without bevacizumab (FIG. 7B)), the HUVEC tube formation entry is recorded as “significantly enhanced”.
Consider `CCN(CC)CCCCNc1ncc2cc(-c3cc(OC)cc(OC)c3)c(NC(=O)NC(C)(C)C)nc2n1` [PD173074], for which, in assay [1], the HUVEC proliferation entry was “reduced HUVEC proliferation significantly”.
